Reference: US11707440B2 (priority 2017, dated 2023)

What was measured:
[1] = tested on: subjects with MDD at imminent risk for suicide; assay: MADRS suicide item, […]2001; type: in vivo, human; conditions: 84 mg, ITT Analysis Set
Source text: • a. Changes from baseline to Day 2 and Day 25 for the MADRS total score • b. Changes from baseline to Day 1 4-hours postdose, Day 2 and Day 25 for the MADRS Suicide Item • c. Changes from baseline to Day 1 4-hours postdose, Day 2, and Day 25 for the clinical global judgment of suicide risk from the Suicide Ideation and Behavior Assessment Tool (SIBAT) • d. Sustained response (Onset of Clinical Response) defined as at least 50% reduction from baseline in MADRS total score with onset on Day 1 that is maintained through the end of the double-blind phase (Day 25) • e. Changes from baseline to Day 1 4-hours postdose, Day 2, and Day 25 for the Beck Scale for Suicidal Ideation (BSS) • f. Changes from baseline to Day 1 4-hours postdose and Day 25 for the Beck Hopelessness Scale
Results of the change from baseline over time for the suicide item from the MADRS assessment can be found in Attachment 1.

subjects with TRD [2] = conditions: human, in vivo, other: intranasal
Description: FIGS. 53 and 54 present means for blood pressure over time by treatment group in the maintenance phase.
Transient blood pressure increases peaked for the esketamine group at approximately 40 minutes post dose and returned closer to predose levels by 1.5 hours post dose.

subjects with TRD [3] = tested on: subjects with TRD; set-up: species or system human; conditions: in vivo
Source text: Subjects with and without hypertension experienced similar magnitude of mean increases of SBP and DBP.
The maximum mean increases (across all dosing days within the respective phase) in diastolic BP were 5.6 and 5.2 in the IND and OP/MA phases, respectively.

[4] = tested on: female Sprague-Dawley rats, PCG/RSC of the brain; assay: 14-day repeated dose neurotoxicity study, intranasal instillation; conditions: 14-day study, 54 mg/day
Description: Esketamine HCl was administered into each nostril of female rats at a volume of 50 μl per nostril either once, twice or thrice daily by intranasal instillation for 14 consecutive days at doses of 0 (vehicle), 18, 36 or 54 mg/day. At each instillation, the second nostril was dosed immediately after the first nostril. The interval between subsequent instillations into both nostrils was 5 minutes when dosed 2 or 3 times per day.
The vehicle control group received 3 subsequent intranasal instillations of the vehicle into both nostrils (50 μL per nostril) with 5-minute intervals for 14 consecutive days.
The positive control group received a single subcutaneous injection of (+)MK-801 at 48 hours prior to the necropsy of the vehicle control and esketamine HCl-treated animals.
Each group of main study animals consisted of 12 female rats. Four satellite animals were added to the esketamine HCl-dosed groups of main study animals for TK purposes. The plasma exposure to esketamine was measured in these animals on the first and the last day of dosing at various time points up to and including 24 hours after the first instillation.
Due to logistic constraints associated with the whole body perfusion procedure of the animals at necropsy, a staggered start was applied to the study. Consequently, all 5 groups of main study animals were divided into three subgroups of 4 animals each. For each of these subgroups treatment started on a different day. The perfusion procedure is the is the same as described for the single dose study.
All vehicle- and esketamine HCl-treated animals were sacrificed at 48 hours after the last instillation. […] The brain tissue of the vehicle control-, positive control- and esketamine HCl-treated rats were processed at the same time and handled in the same way in batches of 4 animals per group.
Furthermore, clinical observations were recorded for the esketamine HCl-dosed rats on the day of dosing at 0 till 5 minutes, 15 and 30 minutes, and at 1, 2, 4, 6 hours post-dose, at the end of the working day and at 24 hours after the last instillation in the single dose study and on the first day of dosing, after one week and towards the end of the dosing period in the repeated dose study. Body weight and body weight gain were measured daily. Food consumption was measured weekly in the repeated dose study.
On the day of terminal kill, a complete physical examination was performed on the rats in fasted condition and body weight was recorded. The surviving animals were anaesthetized by inhalation of an isoflurane (IsoFlo® Zoetis, Belgium)/oxygen mixture and killed by exsanguination via the carotid artery. […] All terminally killed rats or those killed pre-terminally were perfused with 4% paraformaldehyde in the single dose study and with glutaraldehyde 3% in potassium phosphate buffer 0.09 M with 1.4% sucrose in the repeated dose study.
Brain tissue was sampled and processed routinely. The trimmed and embedded tissue was sectioned and stained with hematoxylin-eosin (HE). Histoprocessing and staining were carried out in three batches of 4 animals per group (each batch thus containing 4 animals from vehicle control-, positive control- and the three esketamine HCl-treated groups). In the single dose study duplicate brain sections were stained with Fluoro-Jade (FJ).
All tissues showing gross abnormalities were examined […]. Histopathological examination was performed on 7 levels of brain tissue according to Bolon (2013. Toxicol. Pathol. 41(7), 1028-1048) from the vehicle control-, positive control-, and high dose esketamine HCl-treated groups in the single dose study, and in all groups in the repeated dose study.

[5] = tested on: patients with treatment-resistant depression (TRD); assay: CADSS, Example 7; conditions: human, in vivo, other: intranasal
Description: Adverse events were monitored throughout the study. Other safety assessments (i.e., laboratory tests, vital signs, physical examination) were performed at pre-specified time points. Vital signs, the Clinician Administered Dissociative States Scale (CADSS; Bremner, “Measurement of dissociative states with the clinician-administered dissociative states scale (CADSS)”, J. Traumatic Stress, 1998, 11(1):125-136), and the 4-item positive symptom subscale from the Brief Psychiatric Rating Scale (BPRS; Overall, “The Brief Psychiatric Rating Scale. Psychological Reports”, 1962, 10:799-812) were assessed pre-dose, at 40 minutes, and 2 hours post-dose.

glutamate NMDA receptor = conditions: in vitro; cited from earlier work

In the case of CN[C@]1(c2ccccc2Cl)CCCCC1=O [esketamine, (S)-2-(2-chlorophenyl)-2-(methylamino)cyclohexanone], the “MADRS Suicide Item (Suicidal Thoughts), Change from Baseline, Med” value ([1]; Day 1(DB): 4H LOCF) is reported as −3.0, the “MADRS Suicide Item (Suicidal Thoughts), Change from Baseline, Med” value ([1]; Day 1(DB): 4H) is reported as −3.0 and the “MADRS Suicide Item (Suicidal Thoughts), Change from Baseline, Med” value ([1]; Day 2(DB) LOCF) is reported as −3.0. The “MADRS Suicide Item (Suicidal Thoughts), Change from Baseline, Med” value ([1]; Day 2(DB)) was −3.0, the “MADRS Suicide Item (Suicidal Thoughts), Change from Baseline, Med” value ([1]; Day 3(DB) LOCF) was −4.0 and the “MADRS Suicide Item (Suicidal Thoughts), Change from Baseline, Med” value ([1]; Day 3(DB)) was −4.0. The “MADRS Suicide Item (Suicidal Thoughts), Change from Baseline, Med” value ([1]; Day 4(DB) LOCF) was −4.0, the “MADRS Suicide Item (Suicidal Thoughts), Change from Baseline, Med” value ([1]; Day 4(DB)) was −4.0 and the “MADRS Suicide Item (Suicidal Thoughts), Change from Baseline, Med” value ([1]; Day 5(DB) LOCF) was −4.0. The “MADRS Suicide Item (Suicidal Thoughts), Change from Baseline, Med” value ([1]; Day 5(DB)) was −4.0, the “MADRS Suicide Item (Suicidal Thoughts), Change from Baseline, Med” value ([1]; Day 8(DB) LOCF) was −4.0 and the “MADRS Suicide Item (Suicidal Thoughts), Change from Baseline, Med” value ([1]; Day 8(DB)) was −4.0. For the same molecule, the “MADRS Suicide Item (Suicidal Thoughts), Change from Baseline, Med” value ([1]; Day 11(DB) LOCF) was −4.0, the “MADRS Suicide Item (Suicidal Thoughts), Change from Baseline, Med” value ([1]; Day 11(DB)) was −4.0 and the “MADRS Suicide Item (Suicidal Thoughts), Change from Baseline, Med” value ([1]; Day 15(DB) LOCF) was −4.0. For the same molecule, the “MADRS Suicide Item (Suicidal Thoughts), Change from Baseline, Med” value ([1]; Day 15(DB)) was −4.0, the “MADRS Suicide Item (Suicidal Thoughts), Change from Baseline, Med” value ([1]; Day 18(DB) LOCF) was −4.0 and the “MADRS Suicide Item (Suicidal Thoughts), Change from Baseline, Med” value ([1]; Day 18(DB)) was −4.0. For the same molecule, the “MADRS Suicide Item (Suicidal Thoughts), Change from Baseline, Med” value ([1]; Day 22(DB) LOCF) was −4.0, the “MADRS Suicide Item (Suicidal Thoughts), Change from Baseline, Med” value ([1]; Day 22(DB)) was −4.0 and the “MADRS Suicide Item (Suicidal Thoughts), Change from Baseline, Med” value ([1]; Day 25(DB): 4H) was −4.5. The “MADRS Suicide Item (Suicidal Thoughts), Change from Baseline, Med” value ([1]; Day 25(DB): Predose LOCF) was −4.0, the “MADRS Suicide Item (Suicidal Thoughts), Change from Baseline, Med” value ([1]; Day 25(DB): Predose) was −4.5 and the “MADRS Suicide Item (Suicidal Thoughts), Change from Baseline, Med” value ([1]; Day 32(FU) LOCF) was −4.0. For the same molecule, the “MADRS Suicide Item (Suicidal Thoughts), Change from Baseline, Med” value ([1]; Day 32(FU)) was −4.0, the “MADRS Suicide Item (Suicidal Thoughts), Change from Baseline, Med” value ([1]; Day 39(FU) LOCF) was −5.0 and the “MADRS Suicide Item (Suicidal Thoughts), Change from Baseline, Med” value ([1]; Day 39(FU)) was −5.0. The “MADRS Suicide Item (Suicidal Thoughts), Change from Baseline, Med” value ([1]; Day 46(FU) LOCF) was −4.0, the “MADRS Suicide Item (Suicidal Thoughts), Change from Baseline, Med” value ([1]; Day 46(FU)) was −4.0 and the “MADRS Suicide Item (Suicidal Thoughts), Change from Baseline, Med” value ([1]; Day 53(FU) LOCF) was −4.0. The “MADRS Suicide Item (Suicidal Thoughts), Change from Baseline, Med” value ([1]; Day 53(FU)) was −5.0, the “MADRS Suicide Item (Suicidal Thoughts), Change from Baseline, Med” value ([1]; Day 67(FU) LOCF) was −4.0 and the “MADRS Suicide Item (Suicidal Thoughts), Change from Baseline, Med” value ([1]; Day 67(FU)) was −4.0. For the same molecule, the “MADRS Suicide Item (Suicidal Thoughts), Change from Baseline, Med” value ([1]; Day 81(FU)) was −5.0, the “MADRS Suicide Item (Suicidal Thoughts), Change from Baseline, Med” value ([1]; End Point(DB)) was −4.0 and the “MADRS Suicide Item (Suicidal Thoughts), Change from Baseline, Med” value ([1]; End Point(FU)) was −5.0. The “Time of peak of transient blood pressure increases” value (subjects with TRD [2]) was “approximately 40 minutes post dose”, the “Time of return of blood pressure closer to predose levels” value (subjects with TRD [2]) was at most 1.5 hours post dose and the “Subjects who discontinued intranasal esketamine due to increased blood pressure” value (subjects with TRD [3]) was “Six”. The “AUC-based safety margin compared with the maximum 84 mg clinical dose” value [4] was about 11 fold, the “Cmax-based safety margin compared with the maximum 84 mg clinical dose” value [4] was “approximately 17 fold” and the “Time of peak of perceptual changes/dissociative symptoms (CADSS)” value [5] was 30 to 40 min. The “Time to resolution of perceptual changes/dissociative symptoms (CADSS)” value [5] was at most 2 h and the “Greater affinity for the glutamate NMDA receptor than R-ketamine” value (glutamate NMDA receptor) was 3 to 4 fold.
